Molecules are shown by their SMILES. Counter-ions that a name gives are not always drawn.

This assay can be described thus: Antitetrabenazine test (blocking of depressant effects induced in mice by intravenous tetrabenazine), antidepressant activity. It is filed as in vivo. The note with it: Mus musculus, ip, compound intraperitoneally, tetrabenazine intravenously.
As usually defined, the ED50 is the dose at which the effect has come halfway, by size or by number of responders. Higher therefore signals weaker potency. Regarding `CCN1C[C@@H](O)[C@H](N(C(=O)c2ccc(Cl)cc2)c2ccccc2)C1` (relative stereo) [Example 28, Trans-4-chloro-N-(1-ethyl-4-hydroxy-3-pyrrolindinyl)-N-phenylbenzamide Fumarate], the ED50 was found to be 2.9 mg/kg.

As to `CCN1C[C@@H](O)[C@H](N(C(=O)c2ccccc2)c2ccccc2)C1` (relative stereo) [Example 29, Trans-N-(1-ethyl-4-hyroxy-3-pyrrolidinyl)-N-phenylbenzamide (E)-2-butenedioate], the ED50 was determined as 2.7 mg/kg.

Compound `CCN1C[C@@H](O)[C@H](N(C(=O)c2ccccc2)C2CCCCC2)C1` (relative stereo) [Example 50, Trans-4-[(benzoyl)(cyclohexyl)amino]-1-ethyl-3-pyrrolidinol Fumarate [1:1]] returned an ED50 of 0.3 mg/kg. Under `CCN1C[C@@H](N(C(=O)c2ccc(Cl)cc2)c2ccccc2)[C@H](OC(=O)c2ccc(Cl)cc2)C1` (relative stereo) [Example 27, Trans-4-chlorobenzoic Acid Ester with 4-[(4-Chlorobenzoyl)(phenyl)amino]-1-ethyl-3-pyrrolidinol (E)-2-butenedioate (3:4)] stands 1.1 mg/kg.

The record behind these values is patent publication US4254135A, “3-Amino-4-hydroxypyrrolidines” (A. H. Robins Company, Inc., priority 1979, dated 1981).
